Patent US20240374739A1, “BILE ACID CONJUGATE” (Curtin University, priority 2021, published 2024)

Experiments:
Caspase 3/9 protein = assay: Caspase assay; format: cell-based; conditions: OC-1 cells under stressful, toxic conditions (FIG. 31)
Method: The caspase assay was carried as per manufacturer's instructions (abcam, NSW, Australia), as described below.
• Collagen coated cover slip • Fixing agent: 4% paraformaldehyde • Permeabilization agent 0.5% of Tween 20 or trition-X 100 diluted in PBS • Blocking: 1% BSA in PBST may also be used. • PBST: 0.1% Tween 20 in PBS • Primary abs (1:500 in PBS) • Secondary abs (1:1000 in PBS) • Hoechst (Nuclear stain)
First day: Fixation, permeabilize, blocking and add a primary antibody to the cells, as described below:
• Start by aspirating culture medium from each well followed by fixation of the cells with 4% Using 4% paraformaldehyde in PBS pH 7.4 for 10 min at room temperature. (Add one ml in each well). • Shake a plate for a few seconds.
0.5% of Tween 20 or trition-X 100 diluted in PBS. […]
• Make coverslips ready to be mounted onto microscope slides. • Take a clean slide and dispense one drop of antifade mounting medium by slowly from the pipette into the slide. • Carefully remove a coverslip from the well and allow excess wash to drip off and place the cells face down onto the slide. • Clear fingernail polish can be used to seal the coverslip and prevent it from drying out. • Visualized slide under microscope. […]

diabetic db/db mice = assay: Passive avoidance test (short-term memory) in diabetic db/db mice (Experimental Example 7); format: in vivo; conditions: 14 and 28 weeks of age, compared to the control mice
Description: In this study, 4-5 week old diabetic db/db mice were put onto a diet containing probucol 0.1% (w/w) or HA-1 0.2% (w/w) for either 10 or 24 weeks, till the age of 14 or 28 weeks, respectively. Passive avoidance test was used to assess short-term memory. Subsequently, the mice were sacrificed to obtain plasma and brain tissue samples for further analyses.

SMILES: CC(=O)O[C@@H]1CC[C@@]2(C)[C@H](CC[C@@H]3[C@@H]2CC[C@]2(C)[C@@H]([C@H](C)CCC(=O)Oc4c(C(C)(C)C)cc(SC(C)(C)Sc5cc(C(C)(C)C)c(O)c(C(C)(C)C)c5)cc4C(C)(C)C)CC[C@@H]32)C1 [HA-1, 2,6-di-tert-butyl-4-((2-((3,5-di-tert-butyl-4-hydroxyphenyl)thio)propan-2-yl)thio)phenyl (4R)-4-[(3R,5R,8R,9S,10S,13R,14S,17R)-3-acetoxy-10,13-dimethyl-2,3,4,5,6,7,8,9,11,12,14,15,16,17-tetradecahydro-1H-cyclopenta[a]phenanthren-17-yl]pentanoate]
- protection against programmed cell death (caspase-3 activation) / viable cell population (Caspase 3/9 protein): significant protection against programmed cell death
- passive avoidance latency (short-term memory) (diabetic db/db mice): significantly increased the latency
